Four compounds from patent publication US11078202B2, “β-lactamase inhibitor and use thereof” (priority 2018, dated 2021) can be followed below.

Type in all cases: cell-based
Test [1] relates to Klebsiella pneumoniae XNWB 0002 (KPC-2, SHV-5). The test can be described thus: microbe, parasite or virus in culture. Here is the method: (§1) The bacterial strains used for the minimum inhibitory concentration (MIC) test were frozen in a −80° C. ULT freezer and thawed 2 days before use. A small amount of frozen bacterial strains were scraped using a sterile inoculating loop, streaked onto a TSA solid culture dish for inoculation, and then cultured for 20-24 h at 35±2° C. in a normal atmospheric environment.
(§2) 5-10 colonies with similar morphology were picked from the culture dish using a sterile inoculating loop and then re-streaked onto a suitable solid culture dish. Then the dish was placed into a normal incubator for culture for 20-24 h at 35±2° C.
(§3) 5-10 single bacterial colonies were picked from the solid culture dish, resuspended in 500 μL of 0.9% NaCl, and adjusted to an OD600 of 0.1-0.15 with a spectrophotometer.
(§4) The bacteria were then diluted 300-fold with 1.1×CAMHB.
(§5) After addition, the 6 assay plates were covered by sterile covers. The mixtures in the assay plates were centrifuged by a centrifuge at 1000 rpm for 30 s, and mixed uniformly by oscillating with a microplate oscillator at 800 rpm for 1 min, and then cultured in a common incubator for 16-20 h at 35±2° C.
(§6) The minimum inhibitory concentration of each compound was recorded by reference to guidelines from the Clinical and Laboratory Standards Institute.
(§7) The minimum inhibitory concentrations of the compounds of the present invention and antibiotics (imipenem, ceftazidime, and ampicillin) against 11 strains of bacteria were tested in this study by reference to the medium microdilution method as indicated by the Clinical and Laboratory Standards Institute. The effect of the test compounds in combination with imipenem, ceftazidime, and ampicillin was also tested. Compounds were diluted two-fold in 96-well plates from the highest detection concentration of 64 μg/mL. The test compounds were tested in combination with a fixed concentration of imipenem (4 μg/mL), ceftazidime (8 μg/mL), and ampicillin (8 μg/mL). The bacterial inocula in the assay plates were resuscitated from TSA and diluted in CAMHB, while growth controls (GC wells) and sterile controls (SC wells) were set up in the assay plates.

Test [2] has as its system Klebsiella pneumoniae XNWB 0004 (KPC-2, SHV-12). Put plainly: microbe, parasite or virus in culture. Here is the method: as §1, §2, §3, §4, §5, §6, §7
In test [3] the test system is Escherichia coli XNWB 0010 (SHV-2). The test can be described thus: MIC of antibiotics alone, broth microdilution. The settings on record: antibiotic alone, E. coli XNWB 0010, β-lactamase SHV-2. Here is the method: as §1, §2, §3, §4, §5, §6, §7
(In general: Dilution methods test growth across graded concentrations, often in twofold steps.)

Test [4] relates to Acinetobacter baumannii XNWB 0007 (AmpC). The test can be described thus: MIC of antibiotics alone, broth microdilution. The conditions noted are these: antibiotic alone, A. baumannii XNWB 0007, β-lactamase AmpC. Here is the method: as §1, §2, §3, §4, §5, §6, §7
In test [5] the test system is Escherichia coli XNWB 0009 (SHV-5A). The test can be described thus: MIC of antibiotics alone, broth microdilution. Here is the method: as §1, §2, §3, §4, §5, §6, §7
Test [6] has as its system Klebsiella pneumoniae XNWB 0001 (KPC-1/2). The test can be described thus: MIC of antibiotics alone, broth microdilution. The conditions noted are these: antibiotic alone, K. pneumoniae XNWB 0001, β-lactamase KPC-1/2. The method, then: as §1, §2, §3, §4, §5, §6, §7
Test [7] relates to Klebsiella pneumoniae XNWB 0003 (KPC-11, SHV-12). The test can be described thus: MIC of antibiotics alone, broth microdilution. The method, then:
as §1, §2, §3, §4, §5, §6, §7

In test [8] the test system is Pseudomonas aeruginosa XNWB 0008 (AmpC). The test can be described thus: MIC of antibiotics alone, broth microdilution. The method, then: as §1, §2, §3, §4, §5, §6, §7
In test [9] the test system is Klebsiella pneumoniae XNWB 0005 (KPC-3). Put plainly: MIC of antibiotics alone, broth microdilution. Here is the method: as §1, §2, §3, §4, §5, §6, §7
Test [10] relates to Klebsiella pneumoniae XNWB 0006 (CTX-M-15, SHV). The test can be described thus: MIC of antibiotics alone, broth microdilution. The method, then:
as §1, §2, §3, §4, §5, §6, §7

The subject of test [11] is Enterobacter aerogenes XNWB 0011 (TEM-10). Put plainly: MIC of antibiotics alone, broth microdilution. The conditions noted are these: Klebsiella aerogenes; antibiotic alone; E. aerogenes XNWB 0011, β-lactamase TEM-10. Here is the method: as §1, §2, §3, §4, §5, §6, §7
For test [12], the system named is Escherichia coli XNWB 0010. Put plainly: MIC assay of test compounds combined with ampicillin (8 μg/mL). The settings on record: ampicillin 8 μg/mL fixed.
For test [13], the system named is Escherichia coli XNWB 0009. Described as above. The conditions noted are these: ampicillin 8 μg/mL fixed.
Test [14] relates to Enterobacter aerogenes XNWB 0011. The description is as above. The settings on record: ampicillin 8 μg/mL fixed.
In test [15] the test system is Acinetobacter baumannii XNWB 0007. The test can be described thus: MIC assay of test compounds combined with imipenem (4 μg/mL). The settings on record: imipenem 4 μg/mL fixed. The essentials: (§8)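 Antibiotic potentiation test: compound serially diluted, partner β-lactam at constant concentration, CAMHB medium, saline-standardised inoculum (OD600 0.1-0.15) diluted 300-fold. Incubated 16-20 h at 35±2 °C.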

Test [16] concerns Klebsiella pneumoniae XNWB 0003. The description is as above. The conditions noted are these: imipenem 4 μg/mL fixed. The essentials: as §8
The test system of test [17] is Klebsiella pneumoniae XNWB 0001. Described as above. The settings on record: imipenem 4 μg/mL fixed. Summed up: as §8
Test [18] deals with Klebsiella pneumoniae XNWB 0006. The test is described as above. The conditions noted are these: imipenem 4 μg/mL fixed. The essentials:
as §8

Test [19] concerns Pseudomonas aeruginosa XNWB 0008. The description is as above. The settings on record: imipenem 4 μg/mL fixed. The essentials: as §8
Test [20] relates to Klebsiella pneumoniae XNWB 0005. The description is as above. The settings on record: imipenem 4 μg/mL fixed. Summed up:
as §8

The subject of test [21] is Klebsiella pneumoniae XNWB 0002. The description is as above. The conditions noted are these: imipenem 4 μg/mL fixed. The essentials:
as §8

In test [22] the test system is Klebsiella pneumoniae XNWB 0004. The description is as above. The conditions noted are these: imipenem 4 μg/mL fixed. The essentials: as §8
Test [23] relates to Acinetobacter baumannii XNWB 0007. Put plainly: MIC assay of test compounds combined with ceftazidime (8 μg/mL). The settings on record: ceftazidime 8 μg/mL fixed. Summed up:
as §8

In test [24] the test system is Klebsiella pneumoniae XNWB 0003. The description is as above. The conditions noted are these: ceftazidime 8 μg/mL fixed. Summed up: as §8
For test [25], the system named is Klebsiella pneumoniae XNWB 0001. The test is described as above. The settings on record: ceftazidime 8 μg/mL fixed. The essentials: as §8
In test [26] the test system is Klebsiella pneumoniae XNWB 0006. The description is as above. The conditions noted are these: ceftazidime 8 μg/mL fixed. The essentials: as §8
Test [27] concerns Pseudomonas aeruginosa XNWB 0008. Described as above. The conditions noted are these: ceftazidime 8 μg/mL fixed. Summed up: as §8
In test [28] the test system is Klebsiella pneumoniae XNWB 0005. The description is as above. The conditions noted are these: ceftazidime 8 μg/mL fixed. The essentials: as §8
The test system of test [29] is Klebsiella pneumoniae XNWB 0002. Described as above. The conditions noted are these: ceftazidime 8 μg/mL fixed. The essentials: as §8
For test [30], the system named is Klebsiella pneumoniae XNWB 0004. Described as above. The conditions noted are these: ceftazidime 8 μg/mL fixed. Summed up:
as §8

[31] abbreviates: antibiotic alone, K. pneumoniae XNWB 0003, β-lactamase KPC-11, SHV-12, read-out: MIC.
Setting [32] is: antibiotic alone, P. aeruginosa XNWB 0008, β-lactamase AmpC, read-out: MIC.
[33] abbreviates: antibiotic alone, K. pneumoniae XNWB 0005, β-lactamase KPC-3, read-out: MIC.

Where a name gives a salt, the structure may show the parent alone. Read-outs that look alike come from different tables or passages of the source.

As for `C[C@@H](O)[C@H]1C(=O)N2C(C(=O)O)=C(SCCN=CN)C[C@H]12` [Imipenem], the MIC in [1] was 32 to 64 µg/mL; in [2] it was 64 µg/mL; in [3], at most 0.125 µg/mL; in test [4] it was 32 to 64 µg/mL; in test [5], 0.125 to 0.5 µg/mL; in [6], 64 to 128 µg/mL. The MIC fell in the range of 8 to 16 µg/mL in [7] (setting [31]); 16 to 32 µg/mL in [8] (setting [32]); 32 to 64 µg/mL in [9] (setting [33]); 0.125 to 0.5 µg/mL in [10]; 0.5 to 1 µg/mL in test [11].

As to `CC1(C)S[C@@H]2[C@H](NC(=O)[C@H](N)c3ccccc3)C(=O)N2[C@H]1C(=O)O` [Ampicillin], the MIC in [1], in test [2], in test [3], in test [4], in test [5] and in test [6] was above 32 µg/mL each time. Besides, the MIC in [7] (setting [31]) is above 32 µg/mL; in test [8] (setting [32]) it was above 32 µg/mL; in test [9] (setting [33]) it was above 32 µg/mL; in [10] (antibiotic alone, K. pneumoniae XNWB 0006, β-lactamase CTX-M-15, SHV, read-out: MIC) it was above 32 µg/mL; in [11], above 32 µg/mL.

As for `CC(C)(O/N=C(\C(=O)N[C@@H]1C(=O)N2C(C(=O)[O-])=C(C[n+]3ccccc3)CS[C@H]12)c1csc(N)n1)C(=O)O` [Ceftazidime], the MIC in [1] was 128 µg/mL; in test [2], above 128 µg/mL; in test [3], 4 to 16 µg/mL; in test [4], 64 µg/mL; in test [5], 16 to 32 µg/mL; in test [6], 64 to 128 µg/mL. For the same compound, the MIC in [7] is above 128 µg/mL; in test [8], 128 µg/mL; in test [9] it was above 128 µg/mL; in test [10], above 128 µg/mL; in test [11] it was 0.5 to 1 µg/mL.

On to `O=C1N2C[C@H](N1OS(=O)(=O)O)C1(CC1)C[C@H]2c1cc(C2CCNC2)on1` (stereo partly drawn) [Example 45, (1R,4S)-6-oxo-4-(5-(pyrrolidin-3-yl)isoxazol-3-yl)-5,7-diazaspiro[bicyclo[3.2.1]octane-2,1′-cyclopropan]-7-yl sulfate], for which the “The minimum concentration of test compounds combined with ampicillin (8 μg/mL) for bacteriostasis” value in test [12], in test [13] and in [14] was “A (A: <8 μg/mL)” each time. In addition, the “The minimum concentration of test compounds combined with imipenem (4 μg/mL) for bacteriostasis” value in test [15] is recorded as “C (C: 16-128 μg/mL)”; in test [16] it was “A (A: <8 μg/mL)”; in [17], “A (A: <8 μg/mL)”; in test [18] it was “A (A: <8 μg/mL)”; in test [19] it was “A (A: <8 μg/mL)”; in [20], “A (A: <8 μg/mL)”. Besides, the “The minimum concentration of test compounds combined with imipenem (4 μg/mL) for bacteriostasis” value in [21] and in [22] was “A (A: <8 μg/mL)” throughout. Besides, the “The minimum concentration of test compounds combined with ceftazidime (8 μg/mL) for bacteriostasis” value in test [23] is recorded as “C (C: 16-128 μg/mL)”; in test [24] it was “A (A: <8 μg/mL)”; in test [25], “A (A: <8 μg/mL)”; in test [26], “A (A: <8 μg/mL)”; in [27], “B (B: 8-16 μg/mL)”; in test [28], “A (A: <8 μg/mL)”. Also, the “The minimum concentration of test compounds combined with ceftazidime (8 μg/mL) for bacteriostasis” value in test [29] is “A (A: <8 μg/mL)”; in test [30], “B (B: 8-16 μg/mL)”.
